Series [1] concerns Ebola virus. It is filed as cell-based.
A further series deals with E. coli. In words: Resistance study, serial passage at MIC/2. Type of series: cell-based. The note with it: 30 passages.
Series [2] relates to Ebola virus. It is filed as cell-based. This is another data set of the same source.
Series [3] concerns RAW (macrophage) cell line. In words: Cytotoxicity, MTT assay.
Series [4] concerns stationary-phase S. aureus. In words: Time-kill kinetics against stationary phase bacteria. As to conditions: within 1 h of exposure, 50 μg/mL. It is filed as cell-based.
The subject of series [5] is vancomycin resistant Enterococcus faecium (VRE) (ATCC 51559). In words: Minimum Inhibitory Concentration, micro-dilution broth. Type of series: cell-based. The note with it: 24 h, 37° C.
The next series deals with S. aureus. In words: Resistance study, serial passage at MIC/2. It is filed as cell-based. The note with it: 20 passages.
The next series has as its system HeLa cell line. In words: Cytotoxicity, MTT assay.
Another series deals with S. aureus biofilms. In words: Bacterial biofilm disruption (pre-formed biofilm). It is filed as cell-based. The note with it: for reduction of cell viability in pre-existing biofilms: 24 h.
In series [6] the test system is Ebola virus. Type of series: cell-based. The source holds these as a separate data set.
A further series has as its system S. aureus (MTCC 737). In words: Minimum Inhibitory Concentration, micro-dilution broth. It is filed as cell-based, Staphylococcus aureus. The note with it: 24 h, 37° C.
Series [7] deals with Ebola virus (strain ME718). It is filed as cell-based.
A further series has as its system E. coli (MTCC 443). In words: Minimum Inhibitory Concentration, micro-dilution broth. Type of series: cell-based. The note with it: 24 h, 37° C.
The test system of series [8] is Ebola virus (strain ME718). Type of series: cell-based. The source holds these as a separate data set.

The text below walks through data of patent US20170144969A1, “ANT[…], METHOD FOR PRODUCTION AND USES THEREOF” (priority 2014, published 2017).

Several values for one entry are separate records, joined by “and”; a condition that tells them apart may be missing. Identical values can stand only once. Like-named read-outs stand apart in the source and are kept apart here. Bounds are passed on as bounds.

For the compound `CCCCCCCCCCCCCC(=O)N(CCCNC(=O)[C@H](N)CCCCN)CCCNC(=O)[C@H](N)CCCCN.O=C(O)C(F)(F)F.O=C(O)C(F)(F)F` [Compound 16, N,N-bis-[{3-(^DLys)amino}propyl]tetradecanamide bis(trifluoroacetate)], the “rank of Ct value among 20 compounds” value with Ebola virus [1] and in the series with Ebola virus [2] was “one of the top two Ct values” in each case. Also, the “fold increase in the MIC” value with E. coli and with S. aureus was “no change in the MIC” in each case. For the same compound, the “EC50 (50% cells viability)” value (in series [3] (MTT); in the series with HeLa cell line (MTT)) was over 70 µg/mL each time. The toxicity entry (in series [3] (at its MIC); with HeLa cell line (at its MIC)) was “did not show any toxicity” throughout. Further, the “reductions in cell viability” value in series [4] was “more than 3 Log CFU/mL”. For the same compound, the MIC is given as 2.8 µM in series [5], 5.7 µM against S. aureus (MTCC 737) and 5.4 µM in the series on E. coli (MTCC 443). Further, the “reduction of cell viability in pre-existing biofilms” value in the series on S. aureus biofilms (4×MIC) is 5 Log (CFU/mL); in the series on S. aureus biofilms (10×MIC), 6 Log (CFU/mL); in the series on S. aureus biofilms (at its MIC concentration), “more than 4 Log CFU/mL”. Moreover, in the series with S. aureus biofilms (10×MIC), the “biofilm eradication, confocal microscopy” value was “significant biofilm eradication”. For the same compound, the “pre-formed biofilm mass, crystal violet staining” value with S. aureus biofilms (10×MIC) is “enormous reduction in pre-formed biofilm mass”. Besides, the “Ct value, replicate wells 1-3” value in the series with Ebola virus [6] is 25.96 and 27.13 and 26.42 and 26.03 and 24.81 and 25.73 and 26.99 and 26.76 and 26.30 and 26.31 and 26.49 and 26.53 and 26.04 and 26.63 and 16.70 and 18.76 and 16.93 and 24.42 and 24.33 and 24.32 and 21.29 and 20.72 and 23.10 and 19.95 and 20.87 and 20.22 and 17.82 and 20.49 and 19.45. Moreover, the “amount of viral genome present” value in the series on Ebola virus [6] is “reduced the amount of viral genome present”. Besides, the “Ct value Ave” value is 33.65 and 35.29 in [7]; 34.3 and 32.9 in series [8]. The “Drug - no drug Ct change” value in [7] is 3.76 and 5.40; in series [8], 7.02 and 5.64.
